Assay results published in ChEMBL document CHEMBL1201862, “PubChem BioAssay data set” (2004).
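Compound exposure: 48 hours, 5 concentrations, 96-well plates. GI50 marks 50% less growth.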 The source made the active and inactive calls. Cut-off read from the data, not from the text of the source: active = GI50 up to about 1.1 µM and inactive = higher.

Assays:
Assay in all cases: NCI tumour cell line growth inhibition, 48 h
COLO 205 = system: COLO 205
HCC 2998 = system: HCC 2998
K562 = system: K562
KM12 = system: KM12
LOX IMVI = system: LOX IMVI
MOLT-4 = system: MOLT-4
Malme-3M = system: Malme-3M
NCI-H23 = system: NCI-H23
OVCAR-4 = system: OVCAR-4
OVCAR-5 = system: OVCAR-5
RXF 393 = system: RXF 393
TK-10 = system: TK-10
UACC-257 = system: UACC-257
EKVX = system: EKVX
RPMI-8226 = system: RPMI-8226

SMILES	GI50 (COLO 205)	GI50 (HCC 2998)	GI50 (K562)	GI50 (KM12)	GI50 (LOX IMVI)	GI50 (MOLT-4)	GI50 (Malme-3M)	GI50 (NCI-H23)	GI50 (OVCAR-4)	GI50 (OVCAR-5)	GI50 (RXF 393)	GI50 (TK-10)	GI50 (UACC-257)	GI50 (EKVX)	GI50 (RPMI-8226)
Cc1c[nH]c2c1C13CC1CN(C(=O)c1cc4cc(NC(=O)c5cc6ccccc6o5)ccc4[nH]1)C3=CC2=O (stereo not drawn)	< 0.001 µM (active)	< 0.001 µM (active)	< 0.001 µM (active)	< 0.001 µM (active)	< 0.001 µM (active)	< 0.001 µM (active)	< 0.001 µM (active)	< 0.001 µM (active)	< 0.001 µM (active)	< 0.001 µM (active)	< 0.001 µM (active)	< 0.001 µM (active)	< 0.001 µM (active)	–	–
COc1ccc(/C(=C/n2ccnc2)C(=O)c2ccc(OC)c(OC)c2)cc1	> 100 µM (inactive)	> 100 µM (inactive)	> 100 µM (inactive)	> 100 µM (inactive)	> 100 µM (inactive)	> 100 µM (inactive)	> 100 µM (inactive)	> 100 µM (inactive)	> 100 µM (inactive)	> 100 µM (inactive)	–	> 100 µM (inactive)	> 100 µM (inactive)	> 100 µM (inactive)	> 100 µM (inactive)
CCOc1ccccc1/N=N/c1c(-c2ccccc2)nn(C(=O)CC(=O)Nc2cccc(Cl)c2)c1-c1ccccc1	> 100 µM (inactive)	26.2 µM (inactive)	32.2 µM (inactive)	31.8 µM (inactive)	35.7 µM (inactive)	51.6 µM (inactive)	> 100 µM (inactive)	61.8 µM (inactive)	23.1 µM (inactive)	50.8 µM (inactive)	95.7 µM (inactive)	> 100 µM (inactive)	98.2 µM (inactive)	41.1 µM (inactive)	46.9 µM (inactive)
CCOC(=O)C1=C(Nc2ccc(Cl)c(Cl)c2)OC/C1=N\NS(=O)(=O)c1ccc(C)cc1	> 100 µM (inactive)	33.5 µM (inactive)	21.3 µM (inactive)	39.5 µM (inactive)	9.48 µM (inactive)	26.3 µM (inactive)	67.8 µM (inactive)	34.7 µM (inactive)	63.5 µM (inactive)	> 100 µM (inactive)	67.9 µM (inactive)	42.5 µM (inactive)	18.2 µM (inactive)	58.1 µM (inactive)	21.6 µM (inactive)
Oc1ccc2occ3c2c1CCC3	> 100 µM (inactive)	> 100 µM (inactive)	65.8 µM (inactive)	–	> 100 µM (inactive)	> 100 µM (inactive)	–	> 100 µM (inactive)	> 100 µM (inactive)	–	75.2 µM (inactive)	> 100 µM (inactive)	> 100 µM (inactive)	72.6 µM (inactive)	98.4 µM (inactive)
O=C1c2cccc([N+](=O)[O-])c2C(=O)c2nccnc21	–	2.62 µM (inactive)	1.91 µM (inactive)	–	1.04 µM (active)	2.5 µM (inactive)	1.63 µM (inactive)	1.25 µM (inactive)	1.42 µM (inactive)	3.81 µM (inactive)	1.95 µM (inactive)	2.06 µM (inactive)	0.502 µM (active)	1.81 µM (inactive)	3.05 µM (inactive)
Cc1ccc(-n2cc(/C(N)=N/O)c3ccccc3c2=O)cc1	> 100 µM (inactive)	> 100 µM (inactive)	> 100 µM (inactive)	> 100 µM (inactive)	> 100 µM (inactive)	> 100 µM (inactive)	> 100 µM (inactive)	> 100 µM (inactive)	–	–	–	> 100 µM (inactive)	> 100 µM (inactive)	> 100 µM (inactive)	> 100 µM (inactive)
Clc1ccc2c(Cl)ncnc2c1I	> 100 µM (inactive)	> 100 µM (inactive)	30.5 µM (inactive)	> 100 µM (inactive)	> 100 µM (inactive)	24.8 µM (inactive)	> 100 µM (inactive)	> 100 µM (inactive)	> 100 µM (inactive)	> 100 µM (inactive)	42 µM (inactive)	> 100 µM (inactive)	> 100 µM (inactive)	10.4 µM (inactive)	33.7 µM (inactive)
CCCN(CCC)c1c([N+](=O)[O-])cc(S(N)(=O)=O)cc1[N+](=O)[O-] [ORYZALIN]	21.8 µM (inactive)	18.5 µM (inactive)	13.5 µM (inactive)	17.8 µM (inactive)	17.5 µM (inactive)	20.7 µM (inactive)	17.7 µM (inactive)	16.1 µM (inactive)	14 µM (inactive)	22.4 µM (inactive)	–	–	18.9 µM (inactive)	21.3 µM (inactive)	26.7 µM (inactive)
CCCCCCCCCCCCCCCC/C(C(=O)OC)=C(/O)C(=O)OCC	> 100 µM (inactive)	> 100 µM (inactive)	> 100 µM (inactive)	> 100 µM (inactive)	> 100 µM (inactive)	> 100 µM (inactive)	> 100 µM (inactive)	> 100 µM (inactive)	> 100 µM (inactive)	> 100 µM (inactive)	> 100 µM (inactive)	> 100 µM (inactive)	> 100 µM (inactive)	–	> 100 µM (inactive)
CCC12C=CCN3CCC4(C(=C(C(=O)OC)[C@@H]1O)Nc1ccccc14)C32 (stereo partly drawn)	1.81 µM (inactive)	1.63 µM (inactive)	2.03 µM (inactive)	1.7 µM (inactive)	1.64 µM (inactive)	2.43 µM (inactive)	1.74 µM (inactive)	1.85 µM (inactive)	2.12 µM (inactive)	2.44 µM (inactive)	1.36 µM (inactive)	2.24 µM (inactive)	1.1 µM (active)	1.85 µM (inactive)	2.17 µM (inactive)
C=CCN1/C(=C2\SC(=S)N(c3ccc(C)cc3)C2=O)Sc2c1ncn(C)c2=O	96.8 µM (inactive)	47.6 µM (inactive)	> 100 µM (inactive)	> 100 µM (inactive)	> 100 µM (inactive)	> 100 µM (inactive)	–	> 100 µM (inactive)	94.2 µM (inactive)	> 100 µM (inactive)	–	> 100 µM (inactive)	> 100 µM (inactive)	69 µM (inactive)	> 100 µM (inactive)
C(CCC[Te][Te]CCCCCCOC1CCCCO1)CCOC1CCCCO1 (stereo not drawn)	15.7 µM (inactive)	14.1 µM (inactive)	5.86 µM (inactive)	13.7 µM (inactive)	13.6 µM (inactive)	9.82 µM (inactive)	6.44 µM (inactive)	12.4 µM (inactive)	–	14 µM (inactive)	–	30.1 µM (inactive)	6.81 µM (inactive)	–	–
CCOC(=O)Cc1nc(/C(C#N)=C/c2ccco2)[nH]c(=O)c1C#N	33.5 µM (inactive)	> 100 µM (inactive)	> 100 µM (inactive)	> 100 µM (inactive)	> 100 µM (inactive)	> 100 µM (inactive)	–	> 100 µM (inactive)	> 100 µM (inactive)	> 100 µM (inactive)	> 100 µM (inactive)	> 100 µM (inactive)	> 100 µM (inactive)	> 100 µM (inactive)	> 100 µM (inactive)
O=C1C(c2ccccc2)=C(c2ccccc2)C(c2ccc(Sc3ccc(C4=C(c5ccccc5)C(=O)C(c5ccccc5)=C4c4ccccc4)cc3)cc2)=C1c1ccccc1	> 100 µM (inactive)	–	> 100 µM (inactive)	> 100 µM (inactive)	> 100 µM (inactive)	> 100 µM (inactive)	> 100 µM (inactive)	> 100 µM (inactive)	> 100 µM (inactive)	> 100 µM (inactive)	64.9 µM (inactive)	> 100 µM (inactive)	> 100 µM (inactive)	> 100 µM (inactive)	> 100 µM (inactive)
N/C(=N\O)N/N=C/c1ccc(O)c(O)c1	> 100 µM (inactive)	> 100 µM (inactive)	44.9 µM (inactive)	> 100 µM (inactive)	> 100 µM (inactive)	> 100 µM (inactive)	> 100 µM (inactive)	> 100 µM (inactive)	> 100 µM (inactive)	> 100 µM (inactive)	> 100 µM (inactive)	> 100 µM (inactive)	> 100 µM (inactive)	> 100 µM (inactive)	> 100 µM (inactive)
C/C(=N/N(C=O)C[n+]1ccccc1)C(CN(CC(C)C)CC(C)C)C(=O)Nc1ccc(C)cc1C (stereo not drawn)	> 100 µM (inactive)	> 100 µM (inactive)	> 100 µM (inactive)	84.1 µM (inactive)	–	> 100 µM (inactive)	> 100 µM (inactive)	> 100 µM (inactive)	> 100 µM (inactive)	63.1 µM (inactive)	42.9 µM (inactive)	42.4 µM (inactive)	> 100 µM (inactive)	17.8 µM (inactive)	> 100 µM (inactive)
CCN(CC)CCOc1ccc(CCc2cc(OC)c(OC)c(OC)c2)cc1	17.3 µM (inactive)	–	27.8 µM (inactive)	35.3 µM (inactive)	13.9 µM (inactive)	21.9 µM (inactive)	43.9 µM (inactive)	–	55.3 µM (inactive)	22.3 µM (inactive)	34.9 µM (inactive)	30.5 µM (inactive)	27.9 µM (inactive)	65.3 µM (inactive)	16.8 µM (inactive)
COc1ccccc1/C=C(\NC(=O)c1ccccc1)c1nc2ccccc2[nH]1	28.8 µM (inactive)	–	32.9 µM (inactive)	32.6 µM (inactive)	52.4 µM (inactive)	36.7 µM (inactive)	95.7 µM (inactive)	33.2 µM (inactive)	35 µM (inactive)	> 100 µM (inactive)	76.6 µM (inactive)	39 µM (inactive)	31 µM (inactive)	34.7 µM (inactive)	17.6 µM (inactive)
Cc1c(Cl)cccc1NC(=O)C(=O)c1c(O)c2ccc(O)cc2oc1=O	> 100 µM (inactive)	> 100 µM (inactive)	> 100 µM (inactive)	> 100 µM (inactive)	> 100 µM (inactive)	> 100 µM (inactive)	> 100 µM (inactive)	> 100 µM (inactive)	> 100 µM (inactive)	> 100 µM (inactive)	> 100 µM (inactive)	> 100 µM (inactive)	> 100 µM (inactive)	> 100 µM (inactive)	–
